In PubChem BioAssay (NCI):
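Results reflect a 48-hour exposure of cells in 96-well plates to compound at five concentrations. TGI: total growth inhibition.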

Tests used:
Assay in all cases: growth of human tumour cells (NCI), 48 h
786-0 renal = system: 786-0 renal
A498 renal = system: A498 renal
A549 NSCLC = system: A549 NSCLC
CAKI-1 renal = system: CAKI-1 renal
CCRF-CEM leukemia = system: CCRF-CEM leukemia
COLO 205 colon = system: COLO 205 colon
DLD-1 colon = system: DLD-1 colon
DMS 114 small cell lung = system: DMS 114 small cell lung
DMS 273 small cell lung = system: DMS 273 small cell lung
EKVX NSCLC = system: EKVX NSCLC
HCC-2998 colon = system: HCC-2998 colon
HCT-116 colon = system: HCT-116 colon
HCT-15 colon = system: HCT-15 colon
HL-60(TB) leukemia = system: HL-60(TB) leukemia
HOP-18 NSCLC = system: HOP-18 NSCLC
HOP-62 NSCLC = system: HOP-62 NSCLC
HOP-92 NSCLC = system: HOP-92 NSCLC
IGROV1 ovarian = system: IGROV1 ovarian
K-562 leukemia = system: K-562 leukemia
KM12 colon = system: KM12 colon
KM20L2 colon = system: KM20L2 colon
LOX IMVI melanoma = system: LOX IMVI melanoma
LXFL 529 NSCLC = system: LXFL 529 NSCLC
M14 melanoma = system: M14 melanoma
M19-MEL melanoma = system: M19-MEL melanoma
MALME-3M melanoma = system: MALME-3M melanoma
MOLT-4 leukemia = system: MOLT-4 leukemia
NCI-H226 lung = system: NCI-H226 lung
NCI-H23 lung = system: NCI-H23 lung
NCI-H460 lung = system: NCI-H460 lung
NCI-H522 lung = system: NCI-H522 lung
OVCAR-3 ovarian = system: OVCAR-3 ovarian
OVCAR-4 ovarian = system: OVCAR-4 ovarian
OVCAR-5 ovarian = system: OVCAR-5 ovarian
OVCAR-8 ovarian = system: OVCAR-8 ovarian
RPMI-8226 leukemia = system: RPMI-8226 leukemia
RXF 393 renal = system: RXF 393 renal
SF-268 CNS = system: SF-268 CNS
SF-295 CNS = system: SF-295 CNS
SF-539 CNS = system: SF-539 CNS
SK-MEL-2 melanoma = system: SK-MEL-2 melanoma
SK-MEL-5 melanoma = system: SK-MEL-5 melanoma
SK-OV-3 ovarian = system: SK-OV-3 ovarian
SN12C renal = system: SN12C renal
SNB-19 CNS = system: SNB-19 CNS
SNB-75 CNS = system: SNB-75 CNS
SNB-78 CNS = system: SNB-78 CNS
SR leukemia = system: SR leukemia
SW-620 colon = system: SW-620 colon
TK-10 renal = system: TK-10 renal
U251 CNS = system: U251 CNS
UACC-257 melanoma = system: UACC-257 melanoma
UACC-62 melanoma = system: UACC-62 melanoma
UO-31 renal = system: UO-31 renal
XF 498 CNS = system: XF 498 CNS
ACHN renal = system: ACHN renal
HT29 colon = system: HT29 colon
SK-MEL-28 melanoma = system: SK-MEL-28 melanoma

O=C1c2c(c(-c3ccccc3)c(-c3ccccc3)c(-c3ccccc3)c2-c2ccccc2)C(=O)N1c1cccc(Br)c1
TGI (786-0 renal): > 100 µM
TGI (A498 renal): > 100 µM
TGI (A549 NSCLC): > 100 µM
TGI (CAKI-1 renal): > 100 µM
TGI (CCRF-CEM leukemia): > 100 µM
TGI (COLO 205 colon): > 100 µM
TGI (DLD-1 colon): > 100 µM
TGI (DMS 114 small cell lung): > 100 µM
TGI (DMS 273 small cell lung): > 100 µM
TGI (EKVX NSCLC): > 100 µM
TGI (HCC-2998 colon): > 100 µM
TGI (HCT-116 colon): > 100 µM
TGI (HCT-15 colon): > 100 µM
TGI (HL-60(TB) leukemia): > 100 µM
TGI (HOP-18 NSCLC): > 100 µM
TGI (HOP-62 NSCLC): > 100 µM
TGI (HOP-92 NSCLC): > 100 µM
TGI (IGROV1 ovarian): > 100 µM
TGI (K-562 leukemia): > 100 µM
TGI (KM12 colon): > 100 µM
TGI (KM20L2 colon): > 100 µM
TGI (LOX IMVI melanoma): > 100 µM
TGI (LXFL 529 NSCLC): > 100 µM
TGI (M14 melanoma): > 100 µM
TGI (M19-MEL melanoma): > 100 µM
TGI (MALME-3M melanoma): > 100 µM
TGI (MOLT-4 leukemia): > 100 µM
TGI (NCI-H226 lung): > 100 µM
TGI (NCI-H23 lung): > 100 µM
TGI (NCI-H460 lung): > 100 µM
TGI (NCI-H522 lung): > 100 µM
TGI (OVCAR-3 ovarian): > 100 µM
TGI (OVCAR-4 ovarian): > 100 µM
TGI (OVCAR-5 ovarian): > 100 µM
TGI (OVCAR-8 ovarian): > 100 µM
TGI (RPMI-8226 leukemia): > 100 µM
TGI (RXF 393 renal): > 100 µM
TGI (SF-268 CNS): > 100 µM
TGI (SF-295 CNS): > 100 µM
TGI (SF-539 CNS): > 100 µM
TGI (SK-MEL-2 melanoma): > 100 µM
TGI (SK-MEL-5 melanoma): > 100 µM
TGI (SK-OV-3 ovarian): > 100 µM
TGI (SN12C renal): > 100 µM
TGI (SNB-19 CNS): > 100 µM
TGI (SNB-75 CNS): > 100 µM
TGI (SNB-78 CNS): > 100 µM
TGI (SR leukemia): > 100 µM
TGI (SW-620 colon): > 100 µM
TGI (TK-10 renal): > 100 µM
TGI (U251 CNS): > 100 µM
TGI (UACC-257 melanoma): > 100 µM
TGI (UACC-62 melanoma): > 100 µM
TGI (UO-31 renal): > 100 µM
TGI (XF 498 CNS): > 100 µM

O=C1C(Cl)C(c2cc(Br)ccc2O)N1n1cnc2ccccc2c1=O (stereo not drawn)
TGI (786-0 renal): > 100 µM
TGI (A498 renal): > 100 µM
TGI (A549 NSCLC): > 100 µM
TGI (ACHN renal): > 95.2 µM
TGI (CAKI-1 renal): > 94.3 µM
TGI (CCRF-CEM leukemia): > 100 µM
TGI (COLO 205 colon): > 100 µM
TGI (DLD-1 colon): > 100 µM
TGI (DMS 114 small cell lung): 28.2 µM
TGI (DMS 273 small cell lung): > 73.2 µM
TGI (EKVX NSCLC): 27.8 µM
TGI (HCC-2998 colon): 65.9 µM
TGI (HCT-116 colon): 33.3 µM
TGI (HCT-15 colon): > 100 µM
TGI (HL-60(TB) leukemia): 16.4 µM
TGI (HOP-18 NSCLC): 45.5 µM
TGI (HOP-62 NSCLC): > 100 µM
TGI (HOP-92 NSCLC): 71.1 µM
TGI (HT29 colon): > 100 µM
TGI (IGROV1 ovarian): > 92.7 µM
TGI (K-562 leukemia): > 47.3 µM
TGI (KM12 colon): > 100 µM
TGI (KM20L2 colon): > 100 µM
TGI (LOX IMVI melanoma): > 100 µM
TGI (LXFL 529 NSCLC): > 100 µM
TGI (M14 melanoma): 27.6 µM
TGI (M19-MEL melanoma): 35.1 µM
TGI (MALME-3M melanoma): 70.1 µM
TGI (MOLT-4 leukemia): 29 µM
TGI (NCI-H226 lung): 39.1 µM
TGI (NCI-H23 lung): > 71 µM
TGI (NCI-H460 lung): 60.5 µM
TGI (NCI-H522 lung): > 51.5 µM
TGI (OVCAR-3 ovarian): > 82.1 µM
TGI (OVCAR-4 ovarian): > 82.7 µM
TGI (OVCAR-5 ovarian): > 100 µM
TGI (OVCAR-8 ovarian): > 100 µM
TGI (RPMI-8226 leukemia): 43.7 µM
TGI (RXF 393 renal): > 100 µM
TGI (SF-268 CNS): > 55 µM
TGI (SF-295 CNS): > 100 µM
TGI (SF-539 CNS): > 100 µM
TGI (SK-MEL-2 melanoma): > 100 µM
TGI (SK-MEL-28 melanoma): > 78.2 µM
TGI (SK-MEL-5 melanoma): > 86.8 µM
TGI (SK-OV-3 ovarian): > 100 µM
TGI (SN12C renal): > 100 µM
TGI (SNB-19 CNS): > 62.9 µM
TGI (SNB-75 CNS): 71.4 µM
TGI (SNB-78 CNS): > 93.9 µM
TGI (SR leukemia): > 36.9 µM
TGI (SW-620 colon): > 100 µM
TGI (TK-10 renal): > 100 µM
TGI (U251 CNS): > 100 µM
TGI (UACC-257 melanoma): 49.1 µM
TGI (UACC-62 melanoma): > 68 µM
TGI (UO-31 renal): > 56.3 µM
TGI (XF 498 CNS): > 100 µM

CC1(C)O[C@@H](CC/C=C/CO)[C@H](CC/C=C/CO)O1
TGI (786-0 renal): > 100 µM
TGI (A498 renal): > 100 µM
TGI (A549 NSCLC): > 100 µM
TGI (ACHN renal): > 100 µM
TGI (CAKI-1 renal): > 100 µM
TGI (CCRF-CEM leukemia): > 100 µM
TGI (COLO 205 colon): > 100 µM
TGI (DLD-1 colon): > 100 µM
TGI (DMS 114 small cell lung): > 100 µM
TGI (DMS 273 small cell lung): > 100 µM
TGI (EKVX NSCLC): > 100 µM
TGI (HCC-2998 colon): > 100 µM
TGI (HCT-116 colon): > 100 µM
TGI (HCT-15 colon): > 100 µM
TGI (HL-60(TB) leukemia): > 100 µM
TGI (HOP-18 NSCLC): > 100 µM
TGI (HOP-62 NSCLC): > 100 µM
TGI (HOP-92 NSCLC): > 100 µM
TGI (HT29 colon): > 100 µM
TGI (IGROV1 ovarian): > 100 µM
TGI (K-562 leukemia): > 100 µM
TGI (KM12 colon): > 100 µM
TGI (KM20L2 colon): > 100 µM
TGI (LOX IMVI melanoma): > 100 µM
TGI (LXFL 529 NSCLC): > 100 µM
TGI (M14 melanoma): > 100 µM
TGI (M19-MEL melanoma): > 100 µM
TGI (MALME-3M melanoma): > 100 µM
TGI (MOLT-4 leukemia): > 100 µM
TGI (NCI-H226 lung): > 100 µM
TGI (NCI-H23 lung): > 100 µM
TGI (NCI-H460 lung): > 100 µM
TGI (NCI-H522 lung): > 100 µM
TGI (OVCAR-3 ovarian): > 100 µM
TGI (OVCAR-4 ovarian): > 100 µM
TGI (OVCAR-5 ovarian): > 100 µM
TGI (OVCAR-8 ovarian): > 100 µM
TGI (RPMI-8226 leukemia): > 100 µM
TGI (SF-268 CNS): > 100 µM
TGI (SF-295 CNS): > 100 µM
TGI (SF-539 CNS): > 100 µM
TGI (SK-MEL-2 melanoma): > 100 µM
TGI (SK-MEL-28 melanoma): > 100 µM
TGI (SK-MEL-5 melanoma): > 100 µM
TGI (SK-OV-3 ovarian): > 100 µM
TGI (SN12C renal): > 100 µM
TGI (SNB-19 CNS): > 100 µM
TGI (SNB-75 CNS): > 100 µM
TGI (SNB-78 CNS): > 100 µM
TGI (SR leukemia): > 100 µM
TGI (SW-620 colon): > 100 µM
TGI (TK-10 renal): > 100 µM
TGI (U251 CNS): > 100 µM
TGI (UACC-257 melanoma): > 100 µM
TGI (XF 498 CNS): > 100 µM
